The values that follow come from ChEMBL document CHEMBL1201862, “PubChem BioAssay data set” (2004).

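Interpolation was linear, between the two tested concentrations surrounding the appropriate level; five concentrations were tested over 48 hours in 96-well plates. The concentration for 50% growth inhibition is given as GI50.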 The source made the active and inactive calls. No stated cut-off is given here; in the data, active = GI50 up to about 1.1 µM and inactive = higher.

What all share (assay): growth of human tumour cells (NCI), 48 h
The test system of assay [1] is OVCAR-3.
Assay [2] concerns ACHN.
For assay [3], the system named is SF-295.
Assay [4] relates to EKVX.
For assay [5], the system named is LOX IMVI.
The subject of assay [6] is OVCAR-4.
Assay [7] concerns SK-MEL-5.
Assay [8] has as its system Malme-3M.
Assay [9] deals with UACC-257.
Assay [10] deals with HT-29.
Assay [11] has as its system SN12C.
In assay [12] the test system is A549.
For assay [13], the system named is SF-539.
Assay [14] relates to K562.

As for `CCOC(=O)C(C(=O)Cc1ccccc1)c1ccccc1` (stereo unspecified), the GI50 in [1], in assay [2], in assay [3], in assay [4], in assay [5] and in assay [6] was > 100 µM (inactive) in each case. Also, the GI50 in assay [7], in assay [8], in assay [9], in assay [10], in assay [11] and in assay [12] was > 100 µM (inactive) in each case. In addition, the GI50 in assay [13] and in assay [14] was > 100 µM (inactive) in each case.
As to `COC(=O)C(=O)C(CC(=O)Nc1c(C)cccc1C)C(=O)OC` (stereo unspecified), the GI50 in assay [1], in assay [2], in assay [3], in assay [4], in assay [5] and in [6] was > 100 µM (inactive) each time. In addition, the GI50 in assay [7], in [8], in assay [9], in assay [10], in assay [11] and in assay [12] was > 100 µM (inactive) in each case. Also, the GI50 in assay [13] and in assay [14] was > 100 µM (inactive) in each case.
Take `C=CCNC(=S)N1CC(C)C(=O)Nc2ccccc21` (stereo unspecified): the GI50 in assay [1], in assay [2], in assay [3], in assay [4], in [5] and in assay [6] was > 100 µM (inactive) each time. Besides, the GI50 in assay [7], in assay [8], in assay [10], in [11], in assay [12] and in [13] was > 100 µM (inactive) throughout. For the same molecule, in assay [14], the GI50 is > 100 µM (inactive).
For `N#CC1(C2CC(=O)N(c3ccccc3)C2=O)CCCCC1=O` (stereo unspecified), the GI50 in assay [1], in assay [2], in assay [3], in [4], in [5] and in [6] was > 100 µM (inactive) throughout. For the same molecule, the GI50 in assay [7] is > 100 µM (inactive); in assay [8], 0.498 µM (active); in assay [10], > 100 µM (inactive); in [11], 0.791 µM (active); in assay [12], > 100 µM (inactive); in [13], > 100 µM (inactive). Besides, in assay [14], the GI50 is > 100 µM (inactive).
For the molecule `CC(=O)c1cccc(NC(=O)/C(=N\NC(C)(C)C)c2c(O)c3ccccc3oc2=O)c1`, the GI50 in assay [1], in [2], in assay [3], in [4], in assay [5] and in assay [6] was > 100 µM (inactive) in each case. Also, the GI50 in assay [7] was > 100 µM (inactive); in assay [8], > 100 µM (inactive); in assay [9] it was > 100 µM (inactive); in [10] it was 53.2 µM (inactive); in [11] it was > 100 µM (inactive); in assay [12], > 100 µM (inactive). Also, in [13], the GI50 is > 100 µM (inactive).
With `CCCCCC[C@@H]1CCC2C(CO)[C@@H](O)CC[C@@H]2C1` (stereo partly specified), the GI50 in assay [1] is 15.8 µM (inactive); in assay [2], 19.1 µM (inactive); in [3] it was 16.2 µM (inactive); in assay [4], 18.2 µM (inactive); in [5] it was 19.3 µM (inactive); in [6] it was 16.3 µM (inactive). Further, the GI50 was 20 µM (inactive) in [7]; 18.8 µM (inactive) in assay [8]; 16.7 µM (inactive) in assay [9]; 18.2 µM (inactive) in assay [10]; 16.6 µM (inactive) in [11]; 17.4 µM (inactive) in assay [12]. The GI50 was 18.7 µM (inactive) in assay [13] and 21.3 µM (inactive) in assay [14].
